Assay results from PubChem BioAssay (NCI).
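Cultured in 96-well plates, cells were exposed to test compound for 48 hours across five concentrations. GI50 is the concentration that inhibits growth by half. Definition used: TGI = concentration required for complete inhibition of growth.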

Tests used:
Assay in all cases: NCI tumour cell line growth inhibition, 48 h
ACHN renal = system: ACHN renal
M14 melanoma = system: M14 melanoma
MDA-MB-435 = system: MDA-MB-435
EKVX NSCLC = system: EKVX NSCLC
UACC-62 melanoma = system: UACC-62 melanoma
SF-268 CNS = system: SF-268 CNS
SK-OV-3 ovarian = system: SK-OV-3 ovarian
BT-549 breast = system: BT-549 breast
786-0 renal = system: 786-0 renal
SNB-78 CNS = system: SNB-78 CNS
KM20L2 colon = system: KM20L2 colon
DMS 114 small cell lung = system: DMS 114 small cell lung
DLD-1 colon = system: DLD-1 colon
XF 498 CNS = system: XF 498 CNS

| Structure (SMILES) | GI50 (ACHN renal) [nM] | TGI (ACHN renal) [µM] | GI50 (M14 melanoma) [µM] | TGI (M14 melanoma) [µM] | GI50 (MDA-MB-435) [nM] | TGI (MDA-MB-435) [µM] | GI50 (EKVX NSCLC) [µM] | TGI (EKVX NSCLC) [µM] | GI50 (UACC-62 melanoma) [µM] | TGI (UACC-62 melanoma) [µM] | GI50 (SF-268 CNS) [µM] | TGI (SF-268 CNS) [µM] | TGI (SK-OV-3 ovarian) [µM] | TGI (BT-549 breast) [µM] | TGI (786-0 renal) [µM] | TGI (SNB-78 CNS) [µM] | TGI (KM20L2 colon) [µM] | TGI (DMS 114 small cell lung) [µM] | TGI (DLD-1 colon) [µM] | TGI (XF 498 CNS) [µM] |
| --- | --- | --- | --- | --- | --- | --- | --- | --- | --- | --- | --- | --- | --- | --- | --- | --- | --- | --- | --- | --- |
| O=C(Nc1ccc(-n2cc(-c3ccncc3)c(-c3ccc(O)c(Cl)c3)n2)cc1)Nc1ccc(Cl)c(C(F)(F)F)c1 | 2660 | 9.42 | 2.48 | 6.33 | 2890 | 15.3 | 3.21 | 25.4 | 3.9 | 14.8 | 4.36 | 26.7 |  |  |  |  |  |  |  |  |
| c1ccc(C(NC2=NCCO2)c2ccccc2)cc1 |  | > 10 |  | > 10 |  | > 10 |  | > 10 |  | > 10 |  | > 10 | > 10 |  |  |  |  |  |  |  |
| C/C(=N\NC(=S)N(C)C)c1nc2ncccc2[nH]1 |  | 14.7 |  |  |  | > 100 |  | > 100 |  | 2.7 |  | > 100 | 5.53 | 6.48 |  |  |  |  |  |  |
| OCCCNc1ncnc2[nH]ncc12 |  | > 100 |  | > 100 |  | > 100 |  | > 100 |  | > 100 |  | > 100 | > 100 | > 100 | > 100 |  |  |  |  |  |
| C/C(=N\NC(=S)NCCCCNC(=S)N/N=C(\C)c1ccccn1)c1ccccc1 |  | > 24 |  |  |  | > 100 |  | > 100 |  | 7.03 |  | > 36.5 | 38.9 | 29.5 |  |  |  |  |  |  |
| CC(C)C(=O)CC(c1ccc(Cl)cc1)N1N=C(C(C)C)CC1c1ccc(Cl)cc1 (stereo not drawn) |  | > 100 | 54.5 | > 100 |  |  |  | > 100 |  | > 100 | > 100 | > 100 |  |  |  | > 100 | > 100 | > 100 |  |  |
| Cc1c(Cl)nc(Cl)nc1Cl |  | 0.829 |  | 2.11 |  | 6.75 |  | 3.82 |  | 9.42 |  | 4.01 | 11.7 | 10.2 | 3.7 |  |  |  |  |  |
| CCCn1cc2c(SC)nc(SC)nc2n1 |  | > 100 |  | > 100 |  |  |  | > 100 |  |  |  | > 100 |  |  |  | > 100 |  | > 100 | > 100 | > 100 |
| Cn1ccc(C(=O)NCCN(CCNC(=O)c2ccn(C)c(=O)c2O)CCNC(=O)c2ccn(C)c(=O)c2O)c(O)c1=O |  | > 100 |  | > 100 |  | > 100 |  |  |  | > 100 |  | > 100 | > 100 | > 100 |  |  |  |  |  |  |
| CCOC(=O)C(Cc1cn(C(C)=O)c2ccccc12)P(=O)(OCC)OCC (stereo not drawn) |  | > 100 |  | > 100 |  |  |  |  |  |  |  |  | > 100 |  |  |  |  |  |  |  |
| Cc1[nH]c(=O)[nH]c(=O)c1/C=C/C(=O)NC(CO)CS(=O)Cc1ccccc1 (stereo not drawn) |  |  |  |  |  |  |  | > 300 |  | > 300 |  | > 300 | > 300 |  |  | > 300 | > 300 | > 300 | > 300 | > 300 |
